Columns and labels:
Type in all cases: physicochemical
[1] = Stability of blend with lactose monohydrate on storage; conditions: stored under aggressive conditions of heat and humidity
[2] = Low energy screen (slurry of form B in solvents, PXRD analysis); conditions: slurried for 2 weeks in various solvents (incl. dimethylacetamide, N-methyl-Pyrrolidine, pyridine) at 4° C., room temperature (~22° C.) and 40° C.; analysis after 2 weeks and 4 months
Description: A low energy screen was carried using N-[3-tert-butyl-1-(3-chloro-4-hydroxyphenyl)-1H-pyrazol-5-yl]-N′-{2-[(3-{2-[(2-hydroxyethyl)sulfanyl]phenyl}[1,2,4]triazolo[4,3-a]pyridin-6-yl)sulfanyl]benzyl}urea form B to investigate whether it is the lowest energy form of the compound. Samples of form B were slurried for 2 weeks in various solvents at 4° C., room temperature (˜22° C.) and 40° C. Analysis of wet and dried slurries was carried out at after 2 weeks and 4 months using PXRD.

[3] = Micronisation by jet milling
[4] = Hydrate screen (slurry of form B in aqueous pyridine); conditions: slurried 2 weeks at 4° C., room temperature (~22° C.) and 40° C. in aqueous pyridine containing 50%, 75% and 90% water
Description: A hydrate screen was conducted by slurrying samples of form B for 2 weeks at 4° C., room temperature (˜22° C.) and 40° C. in aqueous pyridine. The three solvent systems selected contained 50%, 75% and 90% water.

Hygroscopicity = experiment: Hygroscopicity

## CC(C)(C)c1cc(NC(=O)NCc2ccccc2Sc2ccc3nnc(-c4ccccc4SCCO)n3c2)n(-c2ccc(O)c(Cl)c2)n1 [form B, N-[3-tert-butyl-1-(3-chloro-4-hydroxyphenyl)-1H-pyrazol-5-yl]-N′-{2-[(3-{2-[(2-hydroxyethyl)sulfanyl]phenyl}[1,2,4]triazolo[4,3-a]pyridin-6-yl)sulfanyl]benzyl}urea]
[1]
  stability when blended with lactose monohydrate: good stability
[2]
  crystalline form after slurrying (PXRD of wet and dried slurries): remained as Form B
[3]
  change in crystalline form on micronisation: without inducing any change in crystalline form
[4]
  change in crystalline form: No change in crystalline form
  hydrated forms observed: No hydrated forms were observed
Hygroscopicity
  hygroscopicity: essentially non-hygroscopic

Source: patent US8222273B2, “Polymorphic form of a [1,2,4]triazole[4,3-A] pyridine derivative inflammatory diseases” (Pfizer Limited, priority 2008, dated 2012)
